± gives the expanded uncertainty stated by the source.
Conditions: 101.33 kPa, Liquid; for speed of sound: Sing-around technique in a fixed-path interferometer; for mass density: Vibrating tube method

SMILES	speed of sound (298.15 K) [m/s]	mass density (298.15 K) [kg/m3]	speed of sound (303.15 K) [m/s]	mass density (303.15 K) [kg/m3]	speed of sound (308.15 K) [m/s]	mass density (308.15 K) [kg/m3]
C1CCOCC1 [tetrahydropyran]	1269.8 ± 0.8	879.13 ± 1	1246.8 ± 0.8	873.99 ± 1	1224.4 ± 0.8	868.83 ± 1
Cc1ccccc1C [1,2-dimethylbenzene]	1346.2 ± 0.7	875.91 ± 1	1326.2 ± 0.7	871.7 ± 1	1306.1 ± 0.7	867.48 ± 1
Cc1ccccc1Cl [2-chlorotoluene]	1298.7 ± 1	1077.3 ± 1	1280.7 ± 1	1072.5 ± 1	1262.7 ± 1	1067.6 ± 1
Cc1ccccc1 [toluene]	1304.6 ± 0.8	862.18 ± 1	1283.2 ± 0.8	857.51 ± 1	1261.8 ± 0.8	852.82 ± 1
c1ccccc1 [benzene]	1299.4 ± 0.8	873.54 ± 1	1276.1 ± 0.77	868.2 ± 1	1252.9 ± 0.76	862.84 ± 1

From the NIST ThermoML archive (doi:10.1021/je5004719)
